# Assay results taken from PMC12366332 (Applied and Environmental Microbiology, 2025).
# Read-outs that look alike come from different tables or passages of the source. Square brackets hold non-standard residues; d marks the D form. Ends that are not written are not given here. Peptide text beside a SMILES is read from it. * marks the point of attachment. Butyryl = CCCC(=O)*
# How the values were obtained:
# E. coli 0111:B4 LPS = format: biochemical, Escherichia coli
# [1] = system: X. fastidiosa subsp. fastidiosa IVIA 5387.2
# horse erythrocytes = conditions: red cells of horse, 50 µM
# tobacco leaves = conditions: 150 µM; after 48 h
Molecule,LPS neutralization Ratio (treatment/NTC) (E. coli 0111:B4 LPS),Bactericidal activity Reduction in viability (Log N0/N) ([1]; 12.5 µM),Bactericidal activity Level ([1]; 50 µM),Hemolytic activity (%) (horse erythrocytes),Phytotoxicity: diameter of the lesion (tobacco leaves) [mm],Bactericidal activity Reduction in viability (Log N0/N) ([1]; 50 µM)
"CCCC(=O)NCCCC[C@H](NC(C)=O)C(=O)N[C@@H](CCCCN)C(=O)N[C@@H](CC(C)C)C(=O)N[C@H](Cc1ccccc1)C(=O)N[C@@H](CCCCN)C(=O)N[C@@H](CCCCN)C(=O)N[C@H](C(=O)N[C@@H](CC(C)C)C(=O)N[C@@H](CCCCN)C(=O)N[C@@H](Cc1ccc(O)cc1)C(=O)N[C@@H](CC(C)C)C(N)=O)[C@@H](C)CC [BP545, Ac-K(COC3H7)KLfKKILKYL-NH2]","0,56","0,54 Log N0/N",High (key: Very High: very high bactericidal activity (>2.5 log); High: high bactericidal activity (between 2.0 and 2.5 log); Moderate: a moderate activity (between 1.5 and 2.0 log); Low: low active (<1.5 log)),5,4,
"CCCC(=O)NCCCC[C@H](NC(=O)[C@H](CCCCN)NC(=O)[C@H](CCCCN)NC(C)=O)C(=O)N[C@H](Cc1ccccc1)C(=O)N[C@@H](CCCCN)C(=O)N[C@@H](CCCCN)C(=O)N[C@@H](CCCCN)C(=O)N[C@@H](CC(C)C)C(=O)N[C@@H](CCCCN)C(=O)N[C@@H](Cc1ccc(O)cc1)C(=O)N[C@@H](CC(C)C)C(N)=O [BP546, Ac-KKK(COC3H7)fKKKLKYL-NH2] (Ac-KKK(Butyryl)[dF]KKKLKYL-NH2)","0,73",,Low (key: Very High: very high bactericidal activity (>2.5 log); High: high bactericidal activity (between 2.0 and 2.5 log); Moderate: a moderate activity (between 1.5 and 2.0 log); Low: low active (<1.5 log)),0,0,"0,34 Log N0/N"
"CCCC(=O)NCCCC[C@@H](NC(=O)[C@H](CC(C)C)NC(=O)[C@H](CCCCN)NC(=O)[C@H](CCCCN)NC(C)=O)C(=O)N[C@@H](CCCCN)C(=O)N[C@@H](CCCCN)C(=O)N[C@H](C(=O)N[C@@H](CC(C)C)C(=O)N[C@H](C(=O)N[C@@H](Cc1ccc(O)cc1)C(=O)N[C@@H](CC(C)C)C(N)=O)[C@@H](C)CC)[C@@H](C)CC [BP547, Ac-KKLk(COC3H7)KKILIYL-NH2]","0,99",,Low (key: Very High: very high bactericidal activity (>2.5 log); High: high bactericidal activity (between 2.0 and 2.5 log); Moderate: a moderate activity (between 1.5 and 2.0 log); Low: low active (<1.5 log)),0,2,"0,05 Log N0/N"
"CCCC(=O)NCCCC[C@H](NC(=O)[C@H](CCCCN)NC(=O)[C@H](CCCCN)NC(=O)[C@@H](Cc1ccccc1)NC(=O)[C@H](CC(C)C)NC(=O)[C@H](CCCCN)NC(=O)[C@H](CCCCN)NC(C)=O)C(=O)N[C@@H](CC(C)C)C(=O)N[C@@H](CCCCN)C(=O)N[C@@H](Cc1ccc(O)cc1)C(=O)N[C@@H](CC(C)C)C(N)=O [BP548, Ac-KKLfKKK(COC3H7)LKYL-NH2]","0,65",,Low (key: Very High: very high bactericidal activity (>2.5 log); High: high bactericidal activity (between 2.0 and 2.5 log); Moderate: a moderate activity (between 1.5 and 2.0 log); Low: low active (<1.5 log)),0,6,"0,28 Log N0/N"
"CCCC(=O)NCCCC[C@H](NC(=O)[C@H](CCCCN)NC(=O)[C@H](CCCCN)NC(C)=O)C(=O)N[C@H](Cc1ccccc1)C(=O)N[C@@H](CCCCN)C(=O)N[C@@H](CCCCN)C(=O)N[C@H](C(=O)N[C@@H](CC(C)C)C(=O)N[C@@H](CCCCN)C(=O)N[C@@H](Cc1ccc(O)cc1)C(=O)N[C@@H](CC(C)C)C(N)=O)[C@@H](C)CC [BP549, Ac-KKK(COC3H7)fKKILKYL-NH2]","1,10",,Low (key: Very High: very high bactericidal activity (>2.5 log); High: high bactericidal activity (between 2.0 and 2.5 log); Moderate: a moderate activity (between 1.5 and 2.0 log); Low: low active (<1.5 log)),1,5,"1,19 Log N0/N"
"CCCC(=O)NCCCC[C@@H](NC(=O)[C@H](CC(C)C)NC(=O)[C@H](CCCCN)NC(=O)[C@H](CCCCN)NC(C)=O)C(=O)N[C@@H](CCCCN)C(=O)N[C@@H](CCCCN)C(=O)N[C@H](C(=O)N[C@@H](CC(C)C)C(=O)N[C@@H](CCCCN)C(=O)N[C@@H](Cc1ccc(O)cc1)C(=O)N[C@@H](CC(C)C)C(N)=O)[C@@H](C)CC [BP550, Ac-KKLk(COC3H7)KKILKYL-NH2]","1,09",,Low (key: Very High: very high bactericidal activity (>2.5 log); High: high bactericidal activity (between 2.0 and 2.5 log); Moderate: a moderate activity (between 1.5 and 2.0 log); Low: low active (<1.5 log)),3,5,"0,00 Log N0/N"
"NIKISGKWKAQKRFLK-NH2 [BPI(84-99), NIKISGKWKAQKRFLK-NH2, reference compound]","0,29",,Low (key: Very High: very high bactericidal activity (>2.5 log); High: high bactericidal activity (between 2.0 and 2.5 log); Moderate: a moderate activity (between 1.5 and 2.0 log); Low: low active (<1.5 log)),7,1,"0,84 Log N0/N"
"RVQGRWKVRASFFK-NH2 [LBP-14, RVQGRWKVRASFFK-NH2, reference compound]","0,23",,Low (key: Very High: very high bactericidal activity (>2.5 log); High: high bactericidal activity (between 2.0 and 2.5 log); Moderate: a moderate activity (between 1.5 and 2.0 log); Low: low active (<1.5 log)),7,1,"0,51 Log N0/N"
"YVKLWRMIKFIR-NH2 [YW12D, YVKLWRMIKFIR-NH2, reference compound]","0,21",,Low (key: Very High: very high bactericidal activity (>2.5 log); High: high bactericidal activity (between 2.0 and 2.5 log); Moderate: a moderate activity (between 1.5 and 2.0 log); Low: low active (<1.5 log)),12,1,"0,59 Log N0/N"
